Source: PMC5634595, “Properties of halogenated and sulfonated porphyrins relevant for the selection of photosensitizers in anticancer and antimicrobial therapies” (PLoS ONE, 2017)
Read-outs that look alike come from different tables or passages of the source.

What was measured:
[1] = UV/Vis absorption spectra, molar absorption coefficients; type: physicochemical; conditions: EtOH; for Absorption λmax, B(0,0): Soret band
Protocol: All commercial chemicals and reagents were of analytical grade and were purchased from Sigma-Aldrich. UV/Vis absorption spectra were recorded in a Hewlett Packard HP8453 spectrophotometer. Solutions containing samples of photosensitizers were dissolved in the selected solvent in quartz cuvettes. Using measured absorbance for various concentrations of porphyrin in ethanol, the molar absorption coefficients were determined from Beer’s law.

[2] = test system: P. aeruginosa (ATCC19660); assay: Photodynamic inactivation of microorganisms, CFU; type: cell-based; conditions: PDI 10 J/cm^2, 420±20 nm, concentration not given
Protocol: (§1) The microorganisms used in PDI were: S. aureus (8325–4), E. faecalis (ATCC29212), E. coli (K12), P. aeruginosa (ATCC19660), S. marcescens (ATCC14756) and C. albicans (DAY286). The planctonic bacteria cells were cultured in brain heart infusion broth (Sigma-Aldrich) and LB Broth/Lennox (BioShop Lab Science Products) in an orbital incubator (37°C, 130 rpm), until the optical density reached 0.5, which corresponds to approximately 10^7 CFU per mL. The fungal yeasts were cultured in YPD Broth (BioShop) with overnight aeration at 30°C to reach ca. 10^6 CFU/mL. For PDI experiments cell suspensions of bacteria or fungal yeasts were incubated with various concentrations of the porphyrins at pH 7.4 (PBS) for 1 h in the dark at room temperature. Aliquots (1 mL) were transferred to a 12-well plate and illuminated with a blue light. We used blue-LED array (420±20 nm) to deliver a light dose of 10 J/cm^2 (measured with a power meter). Cells treated with photosensitizers in the dark were incubated covered with aluminum foil for the same time as the PDI groups (1 h). After illumination (or dark incubation) samples were shaken, diluted in PBS, mixed and plated (LB agar). Aliquots were taken from each well to determine the CFU value. Plates were streaked in triplicate and incubated for 12–36 h at 30 °C (for fungal yeasts) or 37 °C (for bacteria) in the dark to allow colony formation.

[3] = Singlet oxygen quantum yield by phosphorescence at 1270 nm; type: physicochemical; conditions: EtOH, phenalenone as reference
Protocol: (§2) Fluorescence emission spectra were recorded from 550 nm to 750 nm with excitation at Soret band (λ≈420 nm). The excitation and emission slits were both set to 8 nm and scanning speed to 50 nm/min. Fluorescence spectra were recorded with a Perkin Elmer Fluorescence Spectrometer LS 55. Determination of fluorescence quantum yields: ΦF of studied photosensitizers was determined using the comparative method according to the equation: ΦF=ΦFStd⋅FAStdn^2/FStdAnStd2, (1) where F and FStd are the areas under the fluorescence emission curves of the sample and the standard, A and AStd are the absorbance of the sample and the standard and n are the refractive indices of the solvent used for the sample and the standard, respectively. Commercially available tetraphenylporphyrin TPP (Std) (ΦF = 0.10 in toluene) was employed as the standard. The absorbance of the solutions at the excitation wavelength was in the range of 0.02. Singlet oxygen quantum yields were determined based on the relative phosphorescence emissions of singlet oxygen generated by a reference and by each one of the porphyrins, using a method described elsewhere. Briefly, a modified Applied Photophysics LKS.60 flash photolysis spectrometer with a Hamamatsu NIR photomultiplier for detection and HP Infinium (500 MHz, 1GSas^-1) or Tektronix DPO 7254 (2.5 GHz, 40GSas^-1) oscilloscopes were used. The adaptation of this spectrometer allowed for the detection of singlet oxygen phosphorescence at room temperature. This emission was detected using a Hamamatsu R5509–42 photomultiplier, cooled to 193 K in a liquid nitrogen chamber. […] The modification of the spectrometer for time-resolved singlet oxygen phosphorescence measurements involved the interposition of a Melles Griot cold mirror (03MCS005), which reflects more than 99% of the incident light in the 400–700 nm range, and of a Scotch RG665 filter. A 600 line diffraction grating was mounted in place of a standard one. […] Solutions of photosensitizers were prepared with matched absorbances close to 0.2 at 355 nm. […]

[4] = Fluorescence emission and fluorescence quantum yield (comparative method); type: physicochemical; conditions: EtOH, TPP as standard
Protocol: as §2

[5] = n-Octanol/PBS partition coefficient, shake-flask; type: physicochemical; conditions: modified shake-flask
Protocol: The n-octanol/PBS partition coefficients were measured following shake-flask method with minor modifications. The photosensitizers were dissolved in n-octanol previously saturated with a solution of PBS. The same volume of PBS saturated with n-octanol was added and mixed on a vortex device and then the phases were separated by centrifugation. Next, the PBS/n-octanol phase was taken and diluted to obtain 0.5% of PBS/n-octanol content in the final solution. This solution was left into the ultrasonic bath. The fluorescence of each solution was measured using Fluorescence Spectrometer LS 55 (Perkin Elmer) and compared with calibration curve to obtain the concentration of the photosensitizer. Partition coefficients were calculated from the ratio coct/cPBS, where coct and cPBS are the concentrations of the porphyrin derivatives in the n-octanol and in the PBS.

HSA = HSA (Homo sapiens, UniProt P02768); assay: Binding to HSA by fluorescence quenching (Stern-Volmer, Scatchard); conditions: for KSV (Stern-Volmer constant), HSA: HSA fluorescence quenching, PBS, room temperature; for n (number of binding sites), HSA: Scatchard analysis
Protocol: The binding of the PS to HSA was studied by spectrofluorometry at room temperature. An aqueous (phosphate buffer saline, PBS) solution of HSA was titrated with varying concentrations of the respective porphyrin solutions. HSA was excited at 295 nm and fluorescence was recorded between 300 nm and 400 nm. The systematic lowering of HSA fluorescence with increasing photosensitizer concentrations was noted and used in the determination of the binding constants and the number of binding sites on HSA according to Scatchard equation. The changes in HSA fluorescence intensity were related to porphyrin concentrations by the Stern-Volmer relationship. The binding constant (Kb) of PS to lipoproteins was also determined using the spectroscopic titration method. The sets of steady-state emission spectra of PBS solutions with different concentrations of HDL and LDL, to which the porphyrin (5 μM) was added were measured. The fluorescence intensity of the dye increased upon its partitioning into the lipoproteins. To obtain Kb, F versus [L] data were plotted and fitted to by a nonlinear regression routine.

E. coli (K12) = assay: Photodynamic inactivation of microorganisms, CFU; type: cell-based; conditions: PDI 10 J/cm^2, 420±20 nm, concentration not given
Protocol: as §1

[6] = Photodegradation (photostability) under xenon lamp irradiation; type: physicochemical; conditions: same irradiation conditions as in the biological studies
Protocol: The photostability of porphyrins was investigated following the measurement of their optical absorption in aqueous solutions. Continuous irradiation of an aerated solution were carried out using the xenon lamp (XBO-150) through the 10 cm water filter and bandpass filter transmitting within >400 nm range, delivering 75 mW/cm^2. The reaction progress was monitored by UV/Vis spectroscopy using a Hewlett Packard HP8453 spectrophotometer.

[7] = set-up: method as in earlier work; conditions: non-halogenated standard, in toluene; cited from earlier work
[8] = reference compound, in ethanol; cited from earlier work

Sequence of HSA (P02768 25-609): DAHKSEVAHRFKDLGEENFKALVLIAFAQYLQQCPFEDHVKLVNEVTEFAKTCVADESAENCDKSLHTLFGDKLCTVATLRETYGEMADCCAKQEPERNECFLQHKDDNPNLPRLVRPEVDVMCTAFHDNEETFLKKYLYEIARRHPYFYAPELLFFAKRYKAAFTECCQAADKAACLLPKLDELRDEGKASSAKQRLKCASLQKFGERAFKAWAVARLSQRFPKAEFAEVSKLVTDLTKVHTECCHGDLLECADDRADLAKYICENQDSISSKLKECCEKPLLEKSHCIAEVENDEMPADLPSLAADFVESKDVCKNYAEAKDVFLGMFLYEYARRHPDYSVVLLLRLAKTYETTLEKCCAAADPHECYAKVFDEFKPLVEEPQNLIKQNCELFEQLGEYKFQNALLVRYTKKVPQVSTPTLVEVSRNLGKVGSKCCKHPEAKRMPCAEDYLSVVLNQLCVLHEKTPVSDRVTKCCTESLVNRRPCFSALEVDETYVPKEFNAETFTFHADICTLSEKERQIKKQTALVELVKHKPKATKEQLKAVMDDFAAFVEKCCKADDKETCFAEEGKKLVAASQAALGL

Compound	Absorption λmax, Qx (0,1) [1]	Absorption λmax, Qx(0,0) [1]	Absorption λmax, Qy (0,0) [1]	Absorption λmax, Qy (0,1) [1]	Absorption λmax, B(0,0) [1]	Decrease in survival / bacteria CFU killing [2]	Singlet oxygen quantum yield ΦΔ [3]	Fluorescence quantum yield ΦF [4]	logP [5]	KSV (Stern-Volmer constant), HSA (HSA)	n (number of binding sites), HSA (HSA)	also measured
CCNS(=O)(=O)c1ccc(Cl)c(-c2c3nc(c(-c4c(Cl)ccc(S(=O)(=O)NCC)c4Cl)c4ccc([nH]4)c(-c4c(Cl)ccc(S(=O)(=O)NCC)c4Cl)c4nc(c(-c5c(Cl)ccc(S(=O)(=O)NCC)c5Cl)c5ccc2[nH]5)C=C4)C=C3)c1Cl [Cl2PEt, 5,10,15,20-tetrakis(2,6-dichloro-3-N-ethylsulfamoylphenyl)porphyrin]	592 nm	646 nm	546 nm	514 nm	418 nm	up to 3 logs	0.85	0.017	1.84	6.62 10^5M^-1	1	–
O=S(=O)(O)c1ccc(Cl)c(-c2c3nc(c(-c4c(Cl)ccc(S(=O)(=O)O)c4Cl)c4ccc([nH]4)c(-c4c(Cl)ccc(S(=O)(=O)O)c4Cl)c4nc(c(-c5c(Cl)ccc(S(=O)(=O)O)c5Cl)c5ccc2[nH]5)C=C4)C=C3)c1Cl [Cl2POH, 5,10,15,20-tetrakis(2,6-dichloro-3-sulfophenyl)porphyrin]	592 nm	646 nm	546 nm	514 nm	420 nm	1.5–2 logs	0.98	0.015	-1.8	4.66 10^5M^-1	1	Decrease in survival (E. coli (K12)): 1.5–2 logs
C=CC1=C(C)c2cc3[nH]c(cc4nc(cc5[nH]c(cc1n2)c(C)c5CCC(=O)O)C(CCC(=O)O)=C4C)c(C)c3C=C [PpIX]	–	–	–	–	–	–	–	–	–	–	–	Photostability (Soret band absorbance during irradiation) [6]: more prone to photooxidation
C1=Cc2nc1c(-c1ccccc1)c1nc(c(-c3ccccc3)c3ccc([nH]3)c(-c3ccccc3)c3ccc([nH]3)c2-c2ccccc2)C=C1 [TPP, tetraphenylporphyrin]	–	–	–	–	–	–	–	–	–	–	–	Fluorescence quantum yield ΦF [7]: 0.10
O=C1C=Cc2cccc3cccc1c23 [phenalenone]	–	–	–	–	–	–	–	–	–	–	–	Singlet oxygen quantum yield ΦΔ [8]: 0.95 ± 0.02
